Legend:
[1] = test system: primary human fibroblasts; assay: Cell viability of primary human fibroblasts; format: cell-based; settings: 72 hours, read-out: EC50 of killing of fibroblasts
Procedure: (§1) Lymphoma and leukemia cells were cultured in RPMI-1640 (ATCC 30-2001)+10% FBS with antibiotics (100× PenStrep GIBCO #15140122). Primary human fibroblasts were obtained from ATCC (#CRL2522), cultured in DMEM+10% FBS with antibiotics and used at passages 3-5. Primary human tonsillar lymphocytes were a kind gift from M. M. Davis. Cells were routinely checked for mycoplasma and immediately checked upon suspicion. No cultures tested positive.
(§2) 30,000 cells were plated in 100 μL media per well of a 96 well plate and treated with drug for indicated times and doses. A resazurin-based indicator of cell health (PrestoBlue, ThermoFisher #P50200) was added for 1.5 hours after which the fluorescence ratio at 560/590 nm was recorded. The background fluorescence was subtracted and the signal was normalized to DMSO-treated cells. EC50 measurements on cell lines were done with 4 biological repeats by separate cell passages maintained by 3 independent investigators. Fit of dose-response curves to data and statistical analysis was performed using drc package in R using the four-parameter log-logistic function.
(§3) After treatment, mouse tissue was harvested for RNA-seq and histology. […] Serum concentrations after 8 hours were -100 to 400-fold higher than therapeutic doses (FIG. 37, Panel C).

[2] = test system: primary human tonsillar lymphocytes; assay: Cell viability of primary human tonsillar lymphocytes; format: cell-based; settings: 72 hours, read-out: EC50 of killing of lymphocytes
Procedure: as §1, §2, §3

BRD4^BD1 = molecular target: T1, BRD4^BD1 (Homo sapiens, UniProt O60885); assay: Isothermal calorimetry (ITC), binary titration; format: binding; settings: read-out: KD BRD4:TCIP1
T1 construct: 6xHis-TEV (N, cleaved yes)
Source text: The first one or two injections and outliers from instrument noise were routinely excluded. Data was fit to a one-site model using MicroCal LLC Origin software.
One reason for a broadening of the hook effect is the formation of cooperative protein-protein interactions induced by the drug, such as a molecular glue.

BCL6 reporter = BCL6 reporter assay (GFP) in KARPAS422 cells; format: cell-based, human; settings: KARPAS422, 8 hours
Procedure: KARPAS422 cells were lentivirally transduced with a construct containing the reporter. […] Cells were washed in 2.5% FBS/PBS, 1:250 v/v of 7-AAD was added to distinguish live from dead cells, and harvested for flow cytometry on a BD Accuri. The GFP-positive gate were drawn off non-transduced cells and normalized to cells treated with DMSO.

KARPAS422 [3] = assay: Annexin V / 7-AAD apoptosis assay in KARPAS422 cells; format: cell-based, human
Procedure: For annexin V assays, 500,000 cells plated at 1 M/mL treated with drug for indicated timepoints and doses were harvested on ice and washed twice in 2.5% FBS/PBS. 2.5 μL of 7-AAD and 2.5 μL of FITC-Annexin V (Biolegend #640922) were added. Cells were incubated for 15 minutes at RT, then immediately measured on a BD Accuri. Gates were drawn based off single-stain and no-stain controls. For cell cycle and TUNEL analysis, cells plated at 1 M/mL were treated with drug for indicated timepoints and doses and pulsed with 10 μM ethynyl-EdU (Thermo #C10424) for 2 hours prior to harvesting on ice. 1 M cells were counted and washed in 2.5% FBS/PBS. Cells were resuspended at 10 M/mL and fixed in 4% PFA, washed, and permeabilized in 0.5% Triton-X100/PBS. […] After washes, the sample was incubated with 2 μL 7-AAD and 5 μL RNAseA for 30 minutes at RT in the dark, washed, and measured on a BD Accuri. Gates were drawn based off single-stain and no-stain controls and kept constant across conditions.

KARPAS422 [4] = assay: Cell cycle and TUNEL analysis in KARPAS422 cells; format: cell-based, human
Procedure: Cells were incubated for 15 minutes at RT, then immediately measured on a BD Accuri. Gates were drawn based off single-stain and no-stain controls. For cell cycle and TUNEL analysis, cells plated at 1 M/mL were treated with drug for indicated timepoints and doses and pulsed with 10 μM ethynyl-EdU (Thermo #C10424) for 2 hours prior to harvesting on ice. 1 M cells were counted and washed in 2.5% FBS/PBS. Cells were resuspended at 10 M/mL and fixed in 4% PFA, washed, and permeabilized in 0.5% Triton-X100/PBS. […] Gates were drawn based off single-stain and no-stain controls and kept constant across conditions. Cancers can evade cell killing by many chemotherapeutics that function only during a specific stage of the cell cycle. […] The assay allows the analysis of the percentage of apoptotic cells in each cell population: G0/G1, G2/M, and S phase cells (FIG. 34). […] The finding implies that unlike many conventional chemotherapeutics, BRD4-BCL6-TCIPs could kill cancer cells without periods of potential insensitivity.

OCILY19 = assay: Cell viability of OCILY19 DLBCL cells; format: cell-based
Procedure: as §2
The level of expression of BCOR, NCOR and SMRT, which engage PRC and HDACs to produce epigenetic suppression of target genes varied among the cell lines and could also contribute to the variation in sensitivity. […] Among the cell lines tested there was no evidence that killing required TP53, nor was there evidence of repression of killing by endogenous BCL2 levels (FIG. 28, Panel B).

DMS-79 = assay: Dose response on viability of small cell lung cancer line, resazurin assay; format: cell-based; settings: Homo sapiens; DMS-79, 72 h treatment
Procedure: (§4) IC50 of JWZ-7-7, BI-3812, JQ1, and combinations were calculated based on a dose response curve on three small cell lung cancer lines (FIG. 5). The dose response curve on viability was performed in technical replicates and biological triplicate after treating cells for 72 hours across a broad range of concentrations via serial dilutions. Viable cells were measured after treatment via a resazurin assay. The signal for viable assays was normalized to the DMSO treated negative control. A four-parameter non-linear fit was performed to fit a curve to calculate the IC50 for each of the cell lines. The table below describes the calculated IC50 across JWZ-7-7, JQ1, BI-3812 and combination of JQ1 and BI-3812 after 72 h treatment in technical replicates and biological triplicates.

NCI-H1105 = assay: as above; format: cell-based; settings: NCI-H1105, 72 h treatment; read-out: IC50
Procedure: as §4

NCI-H2196 = assay: as above; format: cell-based; settings: Homo sapiens; NCI-H2196, 72 h treatment
Procedure: as §4

BCL6 and BRD4 = molecular target: T2, BCL6 and BRD4 (Homo sapiens, UniProt O60885+P41182); assay: BCL6-BRD4 nanoBRET assay in HEK cells; format: cell-based; settings: C- and N-terminally labeled BCL6 with N-terminally labeled BRD4, HEK cells
T2 construct: N-terminal fusion of HaloTag to full-length BCL6; N-terminal fusion of nanoLuc (nano-luciferase) to full-length BRD4 (Promega #N169A); host or cells: HEK293T
Procedure: The conditions and methods for nanoBRET, a well-recognized assay of in vivo target engagement, are described in PMID 26006698.
A 12-point dose-response curve with 3 technical replicates for each TCIP was carried out and corrected BRET ratios were calculated according to manufacturer assay protocol (Promega #TM439). Data was fit using the R package drc using the four-parameter log-logistic function.

Structure (SMILES) | EC50 [1] [nM] | EC50 [2] [nM] | Kd (BRD4^BD1) [nM] | Activation of BCL6 reporter (BCL6 reporter) | EC50 (BCL6 reporter; read-out: EC50 of BCL6 reporter activation) [nM] | Time to detectable apoptosis (KARPAS422 [3]) [h] | Cell cycle block (KARPAS422 [4]; KARPAS422) | Cell cycle phases in which cell death occurs (TUNEL) (KARPAS422 [4]; KARPAS422, 100 nM) | Response of a DLBCL line with no detectable BCL6 (OCILY19) | IC50 (DMS-79) [nM] | IC50 (NCI-H1105) [nM] | IC50 (NCI-H2196) [nM] | nanoBRET signal of proximity (BCL6 and BRD4)
CNC(=O)COc1cc2cc(Nc3nc(N4CCC(C(=O)NCCCCCCCNC(=O)C[C@@H]5N=C(c6ccc(Cl)cc6)c6c(sc(C)c6C)-n6c(C)nnc65)CC4)ncc3Cl)cc(OC)c2n(C)c1=O [TCIP1] | ~470 | 210 | 5080 | about 25 fold | 5 | 4 to 8 | both a G1/S and G2/M block | all phases of the cell cycle | little or no response |  |  |  | 
CNC(=O)COc1cc2cc(Nc3nc(N4CCC(C(=O)NCCCCCCCNC(=O)C[C@@H]5N=C(c6ccc(Cl)cc6)c6c(sc(C)c6C)-n6c(C)nnc65)CC4)ncc3Cl)cc(OC)c2n(C)c1=O [JWZ-7-7, (S)-1-(5-chloro-4-((8-methoxy-1-methyl-3-(2-(methylamino)-2-oxoethoxy)-2-oxo-1,2-dihydroquinolin-6-yl)amino)pyrimidin-2-yl)-N-(7-(2-(4-(4-chlorophenyl)-2,3,9-trimethyl-6H-thieno[3,2-f][1,2,4]triazolo[4,3-a][1,4]diazepin-6-yl)acetamido)heptyl)piperidine-4-carboxamide] |  |  |  |  |  |  |  |  |  | 66 | 75 | 81 | generated a specific signal of proximity
